Assays:
[1] = test system: S. mansoni schistosomula, adult worm pairs, and egg production; parameters: method as in PMID 28107750; details: 10 μM; cited from earlier work
[2] = test system: Leishmania; parameters: method as in PMID 28107750; details: 10 and 20 μM; cited from earlier work
[3] = biological target: HDAC4 (Homo sapiens, UniProt P56524); test: HDAC4 protease-coupled fluorescence (AMC) inhibition assay; assay type: biochemical; details: hr enzyme, class IIa substrate Boc-Lys(trifluoroacetyl)-AMC; read-out: IC50 against HDAC4
Text: (§1) The new hydroxamates 2 and 6 were screened and profiled via a protease-coupled assay in which the quantification of HDAC enzyme activity is based on the formation of a free fluorescent group, the 7-amino-4-methyl coumarin (AMC).[42] […] After deacetylation by HDACs, the de(trifluoro)acetylated AMC–peptides were sensitive toward lysine peptidase and free fluorogenic AMC was generated and quantified.[42]
(§2) To gain insights into its inhibition profile for human HDACs, we tested 3 against hrHDACs 1–6 and 8 following the above procedure (Table 1).
(§3) Individual IC50 values for each HDAC isozyme were measured with the homogeneous fluorescence release HDAC assay.[42]

[4] = biological target: HDAC2 (Homo sapiens, UniProt Q92769); test: HDAC2 protease-coupled fluorescence (AMC) inhibition assay; assay type: biochemical; details: hr enzyme, 10-dose, 3-fold dilution from 50 μM (3: from 300 μM); read-out: IC50 against HDAC2
Text: as §1, §2, §3

[5] = in vitro; details: mouse, noninfected L929 fibroblast cells
[6] = biological target: HDAC5 (Homo sapiens, UniProt Q9UQL6); test: HDAC5 protease-coupled fluorescence (AMC) inhibition assay; assay type: biochemical; details: hr enzyme, class IIa substrate Boc-Lys(trifluoroacetyl)-AMC; read-out: IC50 against HDAC5
Text: as §1, §2, §3

[7] = test system: L. donovani promastigotes; test: Resazurin reduction assay, L. donovani promastigotes; assay type: cell-based; details: Leishmania donovani, read-out: percentage of inhibition, L. donovani promastigotes
[8] = test system: newly transformed schistosomula (NTS); test: Phenotypic screening on newly transformed schistosomula (NTS); assay type: cell-based, Schistosoma mansoni
[9] = biological target: T1, HDAC6 (Homo sapiens, UniProt Q9UBN7); test: HDAC6 protease-coupled fluorescence (AMC) inhibition assay; assay type: biochemical; details: hr enzyme, 10-dose, 3-fold dilution from 50 μM (3: from 300 μM); read-out: IC50 against HDAC6
T1 sequence (Q9UBN7 1-1215): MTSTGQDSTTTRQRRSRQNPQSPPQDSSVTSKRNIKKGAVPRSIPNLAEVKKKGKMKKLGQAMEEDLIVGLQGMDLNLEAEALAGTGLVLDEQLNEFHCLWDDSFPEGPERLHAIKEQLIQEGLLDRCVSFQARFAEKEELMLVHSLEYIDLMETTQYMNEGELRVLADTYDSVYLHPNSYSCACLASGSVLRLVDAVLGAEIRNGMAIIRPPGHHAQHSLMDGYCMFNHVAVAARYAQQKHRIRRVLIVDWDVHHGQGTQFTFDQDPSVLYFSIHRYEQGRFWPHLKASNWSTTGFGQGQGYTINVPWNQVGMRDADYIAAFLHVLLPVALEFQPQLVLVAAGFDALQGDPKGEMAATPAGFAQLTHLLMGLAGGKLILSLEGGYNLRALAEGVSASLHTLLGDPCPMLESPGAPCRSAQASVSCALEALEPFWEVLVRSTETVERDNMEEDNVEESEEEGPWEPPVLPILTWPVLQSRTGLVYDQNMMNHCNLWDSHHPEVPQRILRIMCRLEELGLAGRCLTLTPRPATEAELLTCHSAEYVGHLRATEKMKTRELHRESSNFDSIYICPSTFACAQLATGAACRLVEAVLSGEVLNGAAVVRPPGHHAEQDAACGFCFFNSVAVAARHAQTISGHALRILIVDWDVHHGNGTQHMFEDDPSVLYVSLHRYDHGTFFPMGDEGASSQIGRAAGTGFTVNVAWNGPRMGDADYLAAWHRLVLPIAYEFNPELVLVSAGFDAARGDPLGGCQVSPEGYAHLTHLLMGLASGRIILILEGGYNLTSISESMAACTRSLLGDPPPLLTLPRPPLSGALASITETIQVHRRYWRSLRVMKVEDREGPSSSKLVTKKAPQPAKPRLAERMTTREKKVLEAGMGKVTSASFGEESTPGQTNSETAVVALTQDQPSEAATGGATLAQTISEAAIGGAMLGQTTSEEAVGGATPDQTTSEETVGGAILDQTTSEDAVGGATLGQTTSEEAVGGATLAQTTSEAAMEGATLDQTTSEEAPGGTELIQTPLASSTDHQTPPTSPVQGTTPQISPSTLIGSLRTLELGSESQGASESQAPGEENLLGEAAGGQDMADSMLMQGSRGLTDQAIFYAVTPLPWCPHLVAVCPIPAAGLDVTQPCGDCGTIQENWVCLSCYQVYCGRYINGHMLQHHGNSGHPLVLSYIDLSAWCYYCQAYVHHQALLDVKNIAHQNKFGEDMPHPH
Text: as §1, §2, §3

[10] = biological target: T2, HDAC8 (Homo sapiens, UniProt Q9BY41); test: HDAC8 protease-coupled fluorescence (AMC) inhibition assay; assay type: biochemical; details: hr enzyme, substrate RHK(Ac)K(Ac)AMC; read-out: IC50 against HDAC8
T2 sequence (Q9BY41 1-377): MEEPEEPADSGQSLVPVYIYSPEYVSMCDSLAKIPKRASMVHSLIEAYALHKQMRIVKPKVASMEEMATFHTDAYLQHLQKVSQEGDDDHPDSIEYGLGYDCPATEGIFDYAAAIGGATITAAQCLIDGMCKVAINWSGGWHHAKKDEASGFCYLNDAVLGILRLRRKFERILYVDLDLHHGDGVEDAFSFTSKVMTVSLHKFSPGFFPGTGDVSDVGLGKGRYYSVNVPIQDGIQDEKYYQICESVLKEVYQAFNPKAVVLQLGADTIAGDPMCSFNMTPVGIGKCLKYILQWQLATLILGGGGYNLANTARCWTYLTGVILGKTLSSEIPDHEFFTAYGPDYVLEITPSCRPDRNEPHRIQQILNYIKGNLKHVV
Text: as §1, §2, §3

[11] = test system: L. donovani axenic amastigotes; test: Resazurin reduction assay, L. donovani axenic amastigotes; assay type: cell-based; details: Leishmania donovani, read-out: percentage of inhibition, L. donovani axenic amastigotes
[12] = test system: T. cruzi amastigotes and trypomastigotes; test: T. cruzi infection assay in L929 cells (beta-galactosidase Tulahuen strain); assay type: cell-based, Trypanosoma cruzi
[13] = biological target: HDAC3 (Homo sapiens, UniProt O15379); test: HDAC3 protease-coupled fluorescence (AMC) inhibition assay; assay type: biochemical; details: hr enzyme, 10-dose, 3-fold dilution from 50 μM (3: from 300 μM); read-out: IC50 against HDAC3
Text: as §1, §2, §3

[14] = biological target: HDAC1 (Homo sapiens, UniProt Q13547); test: HDAC1 protease-coupled fluorescence (AMC) inhibition assay; assay type: biochemical; details: hr enzyme, 10-dose, 3-fold dilution from 50 μM (3: from 300 μM); read-out: IC50 against HDAC1
Text: as §1, §2, §3

[15] = test system: L. amazonensis promastigotes; test: Resazurin reduction assay, L. amazonensis promastigotes; assay type: cell-based; details: Leishmania amazonensis; 20 μM; read-out: percentage of inhibition, L. amazonensis promastigotes

HDAC3, sequence (O15379 whole entry): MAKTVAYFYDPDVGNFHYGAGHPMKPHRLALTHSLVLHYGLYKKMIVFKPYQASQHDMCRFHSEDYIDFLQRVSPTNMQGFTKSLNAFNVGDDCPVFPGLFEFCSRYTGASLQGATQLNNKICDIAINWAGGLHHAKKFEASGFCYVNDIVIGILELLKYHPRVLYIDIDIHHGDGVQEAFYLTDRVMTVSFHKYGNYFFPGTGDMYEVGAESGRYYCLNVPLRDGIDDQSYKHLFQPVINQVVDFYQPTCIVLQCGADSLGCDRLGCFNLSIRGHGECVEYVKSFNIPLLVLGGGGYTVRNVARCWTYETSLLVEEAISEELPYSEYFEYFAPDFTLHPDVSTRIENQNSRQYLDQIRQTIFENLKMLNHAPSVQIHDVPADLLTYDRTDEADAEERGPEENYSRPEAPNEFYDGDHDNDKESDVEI
HDAC3, sequence (Q9Y618 395-489 partner limits assumed): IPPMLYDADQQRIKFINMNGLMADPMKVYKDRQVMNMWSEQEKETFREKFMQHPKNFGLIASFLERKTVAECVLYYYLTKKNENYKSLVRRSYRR
HDAC2, sequence (Q92769 whole entry): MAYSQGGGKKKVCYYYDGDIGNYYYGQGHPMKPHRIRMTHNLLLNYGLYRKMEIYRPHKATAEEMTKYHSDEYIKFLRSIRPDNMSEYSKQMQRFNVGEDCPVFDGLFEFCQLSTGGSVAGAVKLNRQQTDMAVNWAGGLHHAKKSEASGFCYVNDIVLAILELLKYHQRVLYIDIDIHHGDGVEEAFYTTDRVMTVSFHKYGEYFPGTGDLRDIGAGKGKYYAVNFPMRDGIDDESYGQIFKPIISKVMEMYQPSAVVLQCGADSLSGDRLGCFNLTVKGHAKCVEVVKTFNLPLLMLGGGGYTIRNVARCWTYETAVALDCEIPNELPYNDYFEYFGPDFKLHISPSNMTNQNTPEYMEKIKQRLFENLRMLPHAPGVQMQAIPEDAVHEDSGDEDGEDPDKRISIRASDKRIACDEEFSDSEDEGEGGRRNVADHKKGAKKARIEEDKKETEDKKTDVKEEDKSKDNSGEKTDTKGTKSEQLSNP
HDAC4, sequence (P56524 whole entry): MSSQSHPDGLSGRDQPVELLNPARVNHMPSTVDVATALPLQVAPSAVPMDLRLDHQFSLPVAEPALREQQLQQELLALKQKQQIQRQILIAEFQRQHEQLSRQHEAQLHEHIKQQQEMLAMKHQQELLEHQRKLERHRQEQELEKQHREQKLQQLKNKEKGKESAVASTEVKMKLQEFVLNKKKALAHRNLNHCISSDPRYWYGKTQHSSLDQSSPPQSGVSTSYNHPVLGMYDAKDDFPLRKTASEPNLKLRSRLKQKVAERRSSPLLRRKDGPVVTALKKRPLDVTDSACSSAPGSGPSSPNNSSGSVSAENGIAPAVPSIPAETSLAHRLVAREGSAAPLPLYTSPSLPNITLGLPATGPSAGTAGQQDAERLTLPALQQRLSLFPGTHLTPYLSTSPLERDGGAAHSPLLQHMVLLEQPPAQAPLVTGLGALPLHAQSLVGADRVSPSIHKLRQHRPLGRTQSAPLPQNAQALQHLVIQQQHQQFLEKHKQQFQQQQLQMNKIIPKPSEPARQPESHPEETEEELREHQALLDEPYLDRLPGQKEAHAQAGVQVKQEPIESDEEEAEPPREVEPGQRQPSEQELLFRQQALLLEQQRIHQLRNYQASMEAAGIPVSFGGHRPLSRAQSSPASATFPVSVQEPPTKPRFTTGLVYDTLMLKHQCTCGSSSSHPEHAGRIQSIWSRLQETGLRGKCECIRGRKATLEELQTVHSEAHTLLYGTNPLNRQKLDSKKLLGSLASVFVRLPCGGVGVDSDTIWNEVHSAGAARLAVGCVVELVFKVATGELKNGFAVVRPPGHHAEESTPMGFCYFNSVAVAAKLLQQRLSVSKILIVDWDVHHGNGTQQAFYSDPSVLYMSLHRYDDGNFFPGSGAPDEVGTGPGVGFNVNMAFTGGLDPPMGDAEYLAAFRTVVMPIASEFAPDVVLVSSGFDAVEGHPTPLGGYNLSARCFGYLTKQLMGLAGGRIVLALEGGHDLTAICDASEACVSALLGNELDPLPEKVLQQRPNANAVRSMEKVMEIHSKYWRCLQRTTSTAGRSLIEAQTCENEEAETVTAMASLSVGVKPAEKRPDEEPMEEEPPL
HDAC5, sequence (Q9UQL6 whole entry): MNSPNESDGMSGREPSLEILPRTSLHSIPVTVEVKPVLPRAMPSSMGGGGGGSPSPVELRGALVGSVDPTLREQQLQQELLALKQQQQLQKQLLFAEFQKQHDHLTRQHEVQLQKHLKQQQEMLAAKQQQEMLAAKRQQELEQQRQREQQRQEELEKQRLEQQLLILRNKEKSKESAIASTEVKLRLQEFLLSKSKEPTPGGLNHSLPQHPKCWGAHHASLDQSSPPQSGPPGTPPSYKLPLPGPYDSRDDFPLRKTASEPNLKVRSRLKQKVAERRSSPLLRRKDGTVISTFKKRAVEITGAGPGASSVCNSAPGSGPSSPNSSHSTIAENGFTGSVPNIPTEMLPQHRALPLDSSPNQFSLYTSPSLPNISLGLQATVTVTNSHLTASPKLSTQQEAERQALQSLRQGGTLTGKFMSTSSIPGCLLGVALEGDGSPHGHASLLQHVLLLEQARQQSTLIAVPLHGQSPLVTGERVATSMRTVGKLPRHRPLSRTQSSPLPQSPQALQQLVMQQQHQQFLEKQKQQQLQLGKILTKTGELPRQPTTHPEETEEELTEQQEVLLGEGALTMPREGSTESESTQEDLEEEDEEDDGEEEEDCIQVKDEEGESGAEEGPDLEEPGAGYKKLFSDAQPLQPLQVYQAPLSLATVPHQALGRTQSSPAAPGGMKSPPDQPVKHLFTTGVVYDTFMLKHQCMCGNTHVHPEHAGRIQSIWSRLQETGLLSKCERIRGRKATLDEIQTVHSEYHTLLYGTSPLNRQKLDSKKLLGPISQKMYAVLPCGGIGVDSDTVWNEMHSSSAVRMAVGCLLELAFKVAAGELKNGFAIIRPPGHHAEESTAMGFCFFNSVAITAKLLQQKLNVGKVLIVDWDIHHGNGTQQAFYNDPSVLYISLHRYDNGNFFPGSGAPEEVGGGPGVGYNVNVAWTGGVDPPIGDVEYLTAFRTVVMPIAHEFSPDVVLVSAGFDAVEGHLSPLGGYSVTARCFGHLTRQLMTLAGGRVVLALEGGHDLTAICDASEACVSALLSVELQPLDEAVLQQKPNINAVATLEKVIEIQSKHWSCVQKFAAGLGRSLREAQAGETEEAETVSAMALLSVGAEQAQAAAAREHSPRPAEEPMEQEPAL
HDAC1, sequence (Q13547 whole entry): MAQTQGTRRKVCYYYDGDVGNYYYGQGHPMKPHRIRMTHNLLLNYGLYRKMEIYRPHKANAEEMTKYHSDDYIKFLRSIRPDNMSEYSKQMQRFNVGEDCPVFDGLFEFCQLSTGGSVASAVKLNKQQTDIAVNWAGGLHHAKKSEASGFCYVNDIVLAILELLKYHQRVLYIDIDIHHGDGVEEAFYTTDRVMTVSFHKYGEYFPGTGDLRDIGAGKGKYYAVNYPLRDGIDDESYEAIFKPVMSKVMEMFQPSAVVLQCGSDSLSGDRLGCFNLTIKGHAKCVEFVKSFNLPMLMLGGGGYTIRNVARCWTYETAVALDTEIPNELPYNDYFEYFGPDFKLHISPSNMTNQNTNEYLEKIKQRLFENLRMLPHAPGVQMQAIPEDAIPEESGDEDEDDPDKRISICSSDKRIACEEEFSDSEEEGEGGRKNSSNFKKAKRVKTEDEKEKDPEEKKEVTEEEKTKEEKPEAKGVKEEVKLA

SMILES: O=C(/C=C/c1cccc(S(=O)(=O)Nc2ccccc2)c1)NO [belinostat]
- effects in schistosomula, adult worm pairs, and egg production [1]: only moderate effects
- effect in Leishmania [2]: ineffective and/or exhibited too high toxicity for macrophages

SMILES: Cc1[nH]c2ccccc2c1CCNCc1ccc(/C=C/C(=O)NO)cc1 [panobinostat]
- effects in schistosomula, adult worm pairs, and egg production [1]: only moderate effects
- effect in Leishmania [2]: ineffective and/or exhibited too high toxicity for macrophages

SMILES: Cn1c(/C=C/C(=O)NO)ccc1/C=C/C(=O)c1cccc(Cl)c1 [Compound 3]
- IC50 [3]: 132 µM
- IC50 [4]: 257 µM
- CC50 at 96 h [5]: 40 µM
- IC50 [6]: 131 µM
- inhibition at 0.8 µM ([7]; 0.8 μM): 3.8 ± 3.4%
- inhibition at 4 µM ([7]; 4 μM): 1.7 ± 1.5%
- inhibition at 20 µM ([7]; 20 μM): 6.8 ± 1.8%
- percentage of NTS activity, 72 h ([8]; 10 μM): 22.3 ± 2.0%
- percentage of NTS activity, 72 h ([8]; 20 μM): 23.5 ± 0.9%
- IC50 ([8]; Schistosoma mansoni, 72 h, read-out: IC50, viability of NTS): > 20 µM
- IC50 [9]: 6.1 µM
- IC50 [10]: 2 µM
- inhibition at 0.8 µM ([11]; 0.8 μM): 4.9 ± 4.9%
- inhibition at 4 µM ([11]; 4 μM): 50.8 ± 2.4%
- inhibition at 20 µM ([11]; 20 μM): 74.9 ± 1.3%
- percentage of T. cruzi growth inhibition ([12]; 80 μM, infected L929 cells, 96 h, toxic = L929 death): toxic
- percentage of T. cruzi growth inhibition ([12]; 160 μM, infected L929 cells, 96 h, toxic = L929 death): toxic
- selectivity index (SI), CC50/EC50 ([12]; L929 CC50 / T. cruzi EC50): 5.7
- EC50 ([12]; Trypanosoma cruzi, L929, 96 h, infected L929 cells, 96 h, mean ± SD, read-out: EC50, growth of T. cruzi amastigotes and trypomastigotes): 7 ± 0.2 µM
- inhibition at 1.25 µM ([12]; Trypanosoma cruzi, 1.25 μM, infected L929 cells, 96 h, read-out: percentage of T. cruzi growth inhibition): 0%
- inhibition at 2.5 µM ([12]; Trypanosoma cruzi, 2.5 μM, infected L929 cells, 96 h, toxic = L929 death, read-out: percentage of T. cruzi growth inhibition): 2%
- inhibition at 5 µM ([12]; Trypanosoma cruzi, 5 μM, infected L929 cells, 96 h, toxic = L929 death, read-out: percentage of T. cruzi growth inhibition): 39%
- inhibition at 10 µM ([12]; Trypanosoma cruzi, 10 μM, infected L929 cells, 96 h, toxic = L929 death, read-out: percentage of T. cruzi growth inhibition): 67%
- inhibition at 20 µM ([12]; Trypanosoma cruzi, 20 μM, infected L929 cells, 96 h, toxic = L929 death, read-out: percentage of T. cruzi growth inhibition): 87%
- inhibition at 40 µM ([12]; Trypanosoma cruzi, 40 μM, infected L929 cells, 96 h, toxic = L929 death, read-out: percentage of T. cruzi growth inhibition): 90%
- IC50 [13]: > 300 µM
- IC50 [14]: > 300 µM
- inhibition at 20 µM [15]: 9.1 ± 6.3%

SMILES: C/C=C1\NC(=O)[C@H]2CSSCC/C=C/[C@H](CC(=O)N[C@H](C(C)C)C(=O)N2)OC(=O)[C@H](C(C)C)NC1=O [romidepsin]
- effects in schistosomula, adult worm pairs, and egg production [1]: only moderate effects
- effect in Leishmania [2]: ineffective and/or exhibited too high toxicity for macrophages

SMILES: O=C(CCCCCCC(=O)Nc1ccccc1)NO [SAHA]
- effects in schistosomula, adult worm pairs, and egg production [1]: only moderate effects
- effect in Leishmania [2]: ineffective and/or exhibited too high toxicity for macrophages
